Source: PubChem BioAssay (NCI)
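Briefly, cells in 96-well plates were exposed to five compound concentrations for 48 h, and endpoints were estimated by linear interpolation. At the TGI there is no net growth.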

Tests used:
Assay in all cases: inhibition of tumour cell growth, NCI panel, 48 h
SK-OV-3 ovarian = test system: SK-OV-3 ovarian
RXF-631 renal = test system: RXF-631 renal
HOP-92 NSCLC = test system: HOP-92 NSCLC
SF-539 CNS = test system: SF-539 CNS
HCC-2998 colon = test system: HCC-2998 colon
TK-10 renal = test system: TK-10 renal
K-562 leukemia = test system: K-562 leukemia
CAKI-1 renal = test system: CAKI-1 renal
HCT-15 colon = test system: HCT-15 colon
LXFL 529 NSCLC = test system: LXFL 529 NSCLC
SN12C renal = test system: SN12C renal
U251 CNS = test system: U251 CNS
HOP-62 NSCLC = test system: HOP-62 NSCLC
COLO 205 colon = test system: COLO 205 colon
MOLT-4 leukemia = test system: MOLT-4 leukemia
UO-31 renal = test system: UO-31 renal
NCI-H226 lung = test system: NCI-H226 lung
DMS 273 small cell lung = test system: DMS 273 small cell lung
KM20L2 colon = test system: KM20L2 colon
HCT-116 colon = test system: HCT-116 colon
ACHN renal = test system: ACHN renal
OVCAR-8 ovarian = test system: OVCAR-8 ovarian
SNB-75 CNS = test system: SNB-75 CNS
A498 renal = test system: A498 renal
786-0 renal = test system: 786-0 renal
UACC-257 melanoma = test system: UACC-257 melanoma
SW-620 colon = test system: SW-620 colon
SK-MEL-2 melanoma = test system: SK-MEL-2 melanoma
OVCAR-3 ovarian = test system: OVCAR-3 ovarian
M14 melanoma = test system: M14 melanoma
DLD-1 colon = test system: DLD-1 colon
NCI-H460 lung = test system: NCI-H460 lung
CCRF-CEM leukemia = test system: CCRF-CEM leukemia
SR leukemia = test system: SR leukemia
NCI-H522 lung = test system: NCI-H522 lung
SNB-19 CNS = test system: SNB-19 CNS
HOP-18 NSCLC = test system: HOP-18 NSCLC
SK-MEL-28 melanoma = test system: SK-MEL-28 melanoma
UACC-62 melanoma = test system: UACC-62 melanoma
OVCAR-5 ovarian = test system: OVCAR-5 ovarian
RPMI-8226 leukemia = test system: RPMI-8226 leukemia
MALME-3M melanoma = test system: MALME-3M melanoma
IGROV1 ovarian = test system: IGROV1 ovarian
A549 NSCLC = test system: A549 NSCLC
DMS 114 small cell lung = test system: DMS 114 small cell lung
LOX IMVI melanoma = test system: LOX IMVI melanoma
HT29 colon = test system: HT29 colon
EKVX NSCLC = test system: EKVX NSCLC
SF-268 CNS = test system: SF-268 CNS
SNB-78 CNS = test system: SNB-78 CNS
NCI-H23 lung = test system: NCI-H23 lung
OVCAR-4 ovarian = test system: OVCAR-4 ovarian
SK-MEL-5 melanoma = test system: SK-MEL-5 melanoma
RXF 393 renal = test system: RXF 393 renal
M19-MEL melanoma = test system: M19-MEL melanoma
HL-60(TB) leukemia = test system: HL-60(TB) leukemia
SF-295 CNS = test system: SF-295 CNS
XF 498 CNS = test system: XF 498 CNS

Measured: TGI

CC(C)(C)OC(=O)N1N=NC2C3OC(CC3=O)C21 (stereo not given)
> 100 µM: SK-OV-3 ovarian | RXF-631 renal | HOP-92 NSCLC | SF-539 CNS | HCC-2998 colon | TK-10 renal | K-562 leukemia | CAKI-1 renal | HCT-15 colon | LXFL 529 NSCLC | SN12C renal | U251 CNS | HOP-62 NSCLC | COLO 205 colon | MOLT-4 leukemia | UO-31 renal | DMS 273 small cell lung | KM20L2 colon | HCT-116 colon | ACHN renal | OVCAR-8 ovarian | SNB-75 CNS | A498 renal | 786-0 renal | UACC-257 melanoma | SW-620 colon | SK-MEL-2 melanoma | OVCAR-3 ovarian | M14 melanoma | DLD-1 colon | NCI-H460 lung | CCRF-CEM leukemia | SR leukemia | NCI-H522 lung | SNB-19 CNS | HOP-18 NSCLC | SK-MEL-28 melanoma | UACC-62 melanoma | OVCAR-5 ovarian | RPMI-8226 leukemia | MALME-3M melanoma | IGROV1 ovarian | A549 NSCLC | DMS 114 small cell lung | LOX IMVI melanoma | HT29 colon | EKVX NSCLC | SF-268 CNS | SNB-78 CNS | NCI-H23 lung
8.96 µM: NCI-H226 lung

NC(=O)N/N=C(/c1nc2ccc([N+](=O)[O-])cc2[nH]c1=O)C(O)c1ccco1 (stereo not given)
61 µM: HCT-15 colon
85.3 µM: HCC-2998 colon
66.4 µM: KM20L2 colon
> 100 µM: SK-OV-3 ovarian | RXF-631 renal | OVCAR-4 ovarian | HOP-92 NSCLC | TK-10 renal | SK-MEL-5 melanoma | K-562 leukemia | CAKI-1 renal | LXFL 529 NSCLC | RXF 393 renal | U251 CNS | COLO 205 colon | MOLT-4 leukemia | UO-31 renal | NCI-H226 lung | DMS 273 small cell lung | M19-MEL melanoma | HL-60(TB) leukemia | HCT-116 colon | ACHN renal | OVCAR-8 ovarian | SNB-75 CNS | 786-0 renal | UACC-257 melanoma | SW-620 colon | OVCAR-3 ovarian | M14 melanoma | DLD-1 colon | NCI-H460 lung | CCRF-CEM leukemia | SF-295 CNS | SR leukemia | NCI-H522 lung | XF 498 CNS | SNB-19 CNS | SK-MEL-28 melanoma | UACC-62 melanoma | OVCAR-5 ovarian | RPMI-8226 leukemia | MALME-3M melanoma | IGROV1 ovarian | A549 NSCLC | DMS 114 small cell lung | LOX IMVI melanoma | HT29 colon | SF-268 CNS | SNB-78 CNS | NCI-H23 lung
94.6 µM: HOP-62 NSCLC
30.9 µM: SF-539 CNS
33.5 µM: SN12C renal
